Broadly, the Emax is the size of the effect at its maximum, as opposed to the concentration needed.

The test system of one data set is HEK293. In words: Cytotoxicity against HEK293 cells assessed as cell viability by CellTiter-Glo based assay. The format is toxicity. The following applies: human. (ATP-based viability assays read luminescence as a measure of living cells.)
Data set [1] addresses T1, von Hippel-Lindau disease tumor suppressor/Bromodomain-containing protein 4 (Homo sapiens, UniProt O60885+P40337). The data set is described as follows: Protac activity at VHL E3 ligase/BRD4 in HEK293 cells assessed as BRD4 degradation by HiBiT assay. The format is cell-based. On the technique in general: HiBiT is a short tag that completes a luciferase, so light tracks the accessible tagged protein.

Data set [2] has as its target T1, von Hippel-Lindau disease tumor suppressor/Bromodomain-containing protein 4. The data set is described as follows: Protac activity at VHL E3 ligase/BRD4 in HEK293 cells assessed as BRD4 degradation by HiBiT assay relative to control. The format is cell-based.
For data set [3] the target is unchanged. In words: Protac activity at VHL E3 ligase/BRD4 in HEK293 cells assessed as degradation maximum by HiBiT assay relative to control. In kind it is cell-based.

Activity calls are given as the source filed them. The rule behind the calls is not given here.

T1 sequence (P40337 whole entry, looked up, other chains not shown): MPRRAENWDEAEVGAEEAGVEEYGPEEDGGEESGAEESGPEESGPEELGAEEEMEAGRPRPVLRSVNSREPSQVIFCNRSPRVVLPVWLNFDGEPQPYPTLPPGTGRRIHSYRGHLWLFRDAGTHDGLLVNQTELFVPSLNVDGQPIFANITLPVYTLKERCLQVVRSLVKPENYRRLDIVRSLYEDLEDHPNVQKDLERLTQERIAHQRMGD

As to `Cc1ncsc1-c1ccc(CNC(=O)[C@@H]2C[C@@H](O)CN2C(=O)[C@@H](NC(=O)COCCOCCOCCNC(=O)C[C@@H]2N=C(c3ccc(Cl)cc3)c3c(sc(C)c3C)-n3c(C)nnc32)C(C)(C)C)cc1`, the Activity result with HEK293 was “Non-Toxic”; in data set [2] it was 25%. In data set [1], the outcome was Active.
`Cc1sc2c(c1C)C(c1ccc(Cl)cc1)=N[C@@H](CC(=O)O)c1nnc(C)n1-2`: the Activity result with HEK293 is “Non-Toxic”.
Take `Cc1sc2c(c1C)C(c1ccc(Cl)cc1)=N[C@@H](CC(=O)NCCCCCC(=O)O)c1nnc(C)n1-2`: the Activity entry in the data set on HEK293 was “Non-Toxic”.
On to `Cc1sc2c(c1C)C(c1ccc(Cl)cc1)=N[C@@H](CC(=O)N1CCN(CC#Cc3ccc4c(c3)CN(C3CCC(=O)NC3=O)C4=O)CC1)c1nnc(C)n1-2` (stereo in doubt), for which the Emax in data set [3] came to 96%. Also, the outcome in data set [1] was Active.
`Cc1sc2c(c1C)C(c1ccc(Cl)cc1)=N[C@@H](CC(=O)N1CCN(CCCC3CCN(c4ccc5c(c4)CN(C4CCC(=O)NC4=O)C5=O)CC3)CC1)c1nnc(C)n1-2` (stereo in doubt; 11P): in data set [3], the Emax amounted to 99%.

(Values after ChEMBL document CHEMBL5390310, “Rapid PROTAC Discovery Platform: Nanomole-Scale Array Synthesis and Direct Screening of Reaction Mixtures” (ACS Med Chem Lett, 2023).)
